According to US20190297888A1, “FUNGICIDAL COMPOUNDS AND MIXTURES FOR FUNGAL CONTROL IN CEREALS” (Dow AgroSciences LLC, priority 2016, published 2019):

Legend:
Assay type in all cases: in vivo
Conditions in all cases: AUDPC-based, 2 field trials
[1] = test system: Puccinia striiformis (PUCCST); assay: Field assessment of Compound I and fluxapyroxad on yellow rust of wheat (AUDPC % control)
Source text: (§1) Treatments consisting of the compound of Formula I and fungicide compound fluxapyroxad against fungal diseases of wheat were applied either using individually or as a two-way mixture of fluxapyroxad with the compound of Formula I. The compound of Formula I was applied with Agnique BP-420 (50% w/w at 0.3% v/v) at 50, 75 and 100 g ai/ha and Imtrex (Fluxapyroxad 62.5 g/L) was applied at 50, 75 and 100 g ai/ha. Commercial standards used in the studies were Adexar (epoxiconazole+fluxapyroxad—125 g/L), applied at 1.2 and 1.6 L pr/ha, and Elatus Era (benzovindiflupyr+prothioconazole—225 g/L), applied at 1.0 L pr/ha.
Fungicidal treatments containing the compound of Formula I and fluxapyroxad, either individually or as a two-way mixture, were assessed against yellow rust of wheat (PUCCST) in two separate field trials. In the first trial, fungicidal treatments were applied once at B37 (early curative, 6.5% infection at application on L3) growth stage of winter wheat (TRZAW, Fairplay variety). The treatments were part of an experimental trial designed as a randomized complete block with four replications and a plot of approximately 2×6 m. Treatments were applied at water volume of 200 L/ha, using a backpack plot sprayer (BKPCKAIR, FLATFANA nozzle) and pressurized at 300 kPa.
In the second trial, fungicidal treatments containing the compound of Formula I and fluxapyroxad, either individually or as a two-way mixture, were applied once at B33-37 (early curative, 0.5% infection on L2 at application) growth stages of wheat (TRZAW, SOLSTICE variety). The treatment was part of an experimental trial designed as a randomized complete block with four replications and a plot of approximately 1.5×14 m. Treatments were applied at water volume of 200 L/ha, using a backpack precision plot sprayer (BKCKAIR, FLAT FAN nozzle) and pressurized at 210 kPa.
(§2) Disease severity (percentage of visual diseased foliage on whole plot or leaves) in both field trials was recorded following EPPO PP1/26 guideline prescriptions. Area under the disease progress curve (AUDPC) was calculated for each plot in both trials using the sets of recorded severity data. Relative AUDPC (% control based on AUDPC) was calculated as percent of the nontreated control. Final results for the control of yellow rust of wheat by the compound of Formula I, fluxapyroxad and mixtures are reported as an average of the relative AUDPC calculated over both field trials. Statistical analysis was done according to ANOVA and Tukey's test (p=0.10).

[2] = test system: Zymoseptoria tritici (SEPTTR); assay: Field assessment of Compound I and fluxapyroxad on leaf blotch of wheat (AUDPC % control)
Source text: as §1
Fungicidal treatments containing the compound of Formula I and fluxapyroxad, either individually or as a two-way mixture, were assessed against leaf spot of wheat (SEPTTR) in two separate field trials. In the first trial, fungicidal treatments were applied at B32 (curative, 12% infection at application on L4) growth stage of winter wheat (TRZAW, TOBAK variety). The treatments were part of an experimental trial designed as a randomized complete block with four replications and a plot of approximately 2×2 m. Treatments were applied at water volume of 200 L/ha, using a backpack plot sprayer (BCYAIR, FLATFANA nozzle) and pressurized at 220 kPa.
In the second trial, fungicidal treatments were applied at B33-39 (curative, 50% infection at application on L5) growth stages of winter wheat (TRZAW, Consort variety). The treatments were part of an experimental trial designed as a randomized complete block with four replications and a plot of approximately 1.5×14 m. Treatments were applied at water volume of 200 L/ha, using a backpack plot sprayer (BKPCKAIR, Flat fan nozzle) and pressurized at 210 kPa.
as §2, with “leaf spot” for “yellow rust”

[3] = test system: Pyrenophora teres (PYRNTE); assay: Field assessment of Compound I and fluxapyroxad on net blotch of barley (AUDPC % control)
Method: Commercial standards used in the studies were Proline 275 (275 g ai/L Prothioconazole), applied at 150 g ai/ha, and SiltraXpro (200 g ai/L prothioconazole+60 g ai/[…] bixafen), applied at 195 g ai/ha.
Fungicidal treatments containing the compound of Formula I and fluxapyroxad, either individually or as a two-way mixture, were assessed against net blotch of barley (PYRNTE) in two separate field trials. In both trials, fungicidal treatments were applied at B31-37 growth stages of winter barley and sprong barley (HORVW, Lomeritt variety; HORVS, Scarlett variety) under natural infection of net blotch (protectant tests, 1% infection on leaf 4 and 10% infection on leaf 6 at application). All treatments were part of an experimental trial designed as a randomized complete block with four replications.
as §2, with “Final results for the control of yellow rust of wheat by the compound of Formula I, fluxapyroxad and mixtures are reported as an average of the relative AUDPC calculated over both field trials.” left out

Compound: N#Cc1ccc(Oc2ccc(C(F)(F)C(O)(Cn3ncnc3S)c3ccc(F)cc3F)nc2)cc1 (stereo not drawn) [Compound I, 4-((6-(2-(2,4-difluorophenyl)-1,1-difluoro-2-hydroxy-3-(5-mercapto-1H-1,2,4-triazol-1-yl)propyl)pyridin-3-yl)oxy)benzonitrile]
- PUCCST % Control ([1]; rate 50 g ai/ha): 80.0%
- PUCCST % Control ([1]; rate 75 g ai/ha): 93.3%
- PUCCST % Control ([1]; rate 100 g ai/ha): 98.0%
- SEPTTR % Control ([2]; rate 50 g ai/ha): 43.9%
- SEPTTR % Control ([2]; rate 75 g ai/ha): 50.7%
- SEPTTR % Control ([2]; rate 100 g ai/ha): 56.6%
- PYRNTE % Control ([3]; rate 75 g ai/ha): 8.66%
- PYRNTE % Control ([3]; rate 100 g ai/ha): 23.5%
- PYRNTE % Control ([3]; rate 150 g ai/ha): 40.8%

Compound: Cn1cc(C(=O)Nc2ccccc2-c2cc(F)c(F)c(F)c2)c(C(F)F)n1 [Fluxapyroxad, 3-(difluoromethyl)-1-methyl-N-(3′,4′,5′-trifluorobiphenyl-2-yl)pyrazole-4-carboxamide]
- PUCCST % Control ([1]; rate 50 g ai/ha): 74.1%
- PUCCST % Control ([1]; rate 75 g ai/ha): 69.0%
- PUCCST % Control ([1]; rate 100 g ai/ha): 79.4%
- SEPTTR % Control ([2]; rate 50 g ai/ha): 47.4%
- SEPTTR % Control ([2]; rate 75 g ai/ha): 60.9%
- SEPTTR % Control ([2]; rate 100 g ai/ha): 66.4%
- PYRNTE % Control ([3]; rate 45 g ai/ha): 66.5%
- PYRNTE % Control ([3]; rate 62.5 g ai/ha): 73.4%
- PYRNTE % Control ([3]; rate 100 g ai/ha): 83.2%
